The text below walks through data of publication PMC6522510 (Nature Communications, 2019).

Holding throughout (experiment): cells
What all share (set-up): species or system AML cell lines (8); Secondary HTS, 10-point dose-response in triplicate, Cell Titer Glo viability, four-parameter fit EC50

One assay deals with MOLM-13. The note with it: Homo sapiens, MOLM-13, 72 h, read-out: MOLM-13.
For another assay, the system named is MV4-11. The note with it: Homo sapiens, MV4-11, 72 h, read-out: MV4-11.
Another assay relates to CHRF288-11. The note with it: 72 h, read-out: CHRF288-11.
The next assay relates to CMK. The note with it: Homo sapiens, CMK, 72 h, read-out: CMK.
Another assay deals with CMS. The note with it: 72 h, read-out: CMS.
The next assay relates to M07e. The conditions noted are these: M-07e, 72 h, read-out: M07e.
A further assay deals with ML-2. The conditions noted are these: Homo sapiens, ML-2, 72 h, read-out: ML-2.
In a further assay the test system is U937. The conditions noted are these: Homo sapiens, U-937, 72 h, read-out: U937.

As for `COc1ccc([C@@]23Oc4cc(OC)cc(OC)c4[C@]2(O)[C@H](O)[C@H](C(=O)N(C)C)[C@H]3c2ccccc2)cc1` [SJ000834151, ROCAGLAMIDE A], the EC50 is 0.018 µM with MOLM-13; more than 10 µM in the assay on MV4-11; 0.014 µM in the assay on CHRF288-11; 0.021 µM in the assay on CMK; 0.017 µM in the assay with CMS; 0.031 µM in the assay with M07e. Besides, the values for the EC50 in the assay with ML-2 and in the assay with U937 were 0.044 µM and 0.053 µM, respectively.

For `Clc1ccc(C(c2ccccc2Cl)C(Cl)Cl)cc1` (stereo not drawn) [MITOTANE], the EC50 in the assay with MOLM-13, in the assay with MV4-11, in the assay with CHRF288-11, in the assay with CMK, in the assay with CMS and with M07e was more than 10 µM each time. Further, the EC50 in the assay with ML-2 and in the assay on U937 was more than 10 µM in each case.

Take `C[C@@H]1COCCN1c1cc(C2(S(C)(=O)=O)CC2)nc(-c2cccc3[nH]ccc23)n1` [SJ000833844, AZ-20]: the EC50 in the assay with MOLM-13 is more than 10 µM; with MV4-11, more than 10 µM; in the assay with CHRF288-11, 2.5 µM; with CMK it was more than 10 µM; in the assay on CMS, 0.6 µM; in the assay on M07e, 0.2 µM. Besides, the figures for the EC50 in the assay with ML-2 and in the assay on U937 were 0.031 µM and 4.7 µM, respectively.

On to `COc1cc2c(cc1-c1c(C)noc1C)ncc1[nH]c(=O)n([C@H](C)c3ccccn3)c12` [SJ000785891, I-BET151], for which the EC50 was 0.65 µM with MOLM-13; more than 10 µM in the assay on MV4-11; 5.1 µM in the assay on CHRF288-11; more than 10 µM in the assay with CMK; 2.1 µM in the assay on CMS; more than 10 µM in the assay on M07e. Besides, the EC50 was 2.7 µM with ML-2 and 3.2 µM with U937.

As for `Cc1ccc(NC(=O)CCCCCC(=O)Nc2ccccc2N)cc1` [SJ000784239, PIMELIC DIPHENYLAMIDE 106], the EC50 with MOLM-13 is more than 10 µM; in the assay on MV4-11, more than 10 µM; in the assay with CHRF288-11, more than 10 µM; in the assay with CMK, more than 10 µM; in the assay on CMS, 8.2 µM; in the assay with M07e, 6.7 µM. Further, the EC50 in the assay with ML-2 and with U937 was more than 10 µM throughout.

For `Cc1noc(-c2ccc(-c3ccc(CC(=O)O)cc3)cc2)c1NC(=O)O[C@H](C)c1ccccc1Cl` [SJ000833864, AM-966], the EC50 in the assay on MOLM-13 is 0.018 µM; in the assay on MV4-11, more than 10 µM; in the assay on CHRF288-11, more than 10 µM; in the assay with CMK it was more than 10 µM; in the assay with CMS, more than 10 µM; with M07e, more than 10 µM. The EC50 in the assay on ML-2 and in the assay with U937 was more than 10 µM each time.

Turning to `COc1cc(Nc2ncc(F)c(Nc3ccc4c(n3)NC(=O)C(C)(C)O4)n2)cc(OC)c1OC` [SJ000772392, R406], the EC50 is 0.14 µM with MOLM-13; 0.057 µM in the assay with MV4-11; more than 10 µM in the assay with CHRF288-11; more than 10 µM with CMK; 0.9 µM in the assay with CMS; more than 10 µM in the assay on M07e. In addition, the EC50 with ML-2 and in the assay on U937 was more than 10 µM each time.

For `CCOC(=O)c1cc2ccccc2nc1C` [SJ000025189, MC-1626], the EC50 in the assay with MOLM-13, in the assay with MV4-11, in the assay on CHRF288-11, with CMK, with CMS and in the assay on M07e was more than 10 µM in each case. For the same compound, the EC50 in the assay with ML-2 and with U937 was more than 10 µM in each case.

Consider `FC(F)c1nc2ccccc2n1-c1nc(N2CCOCC2)nc(N2CCOCC2)n1` [ZSTK-474], for which the EC50 with MOLM-13, in the assay with MV4-11, with CHRF288-11, in the assay with CMK, in the assay with CMS and with M07e was more than 10 µM each time. Besides, the EC50 with ML-2 and in the assay on U937 was more than 10 µM each time.

Take `CC(C)=CCC/C(C)=C/CC/C(C)=C/CSc1ccccc1C(=O)O` [SALIRASIB]: the EC50 with MOLM-13, in the assay on MV4-11, with CHRF288-11, in the assay with CMK, in the assay with CMS and with M07e was more than 10 µM throughout. The EC50 in the assay on ML-2 and in the assay on U937 was more than 10 µM each time.

As to `O=c1cc(N2CCOCC2)oc2c1ccc1ccccc12` [SJ000834163, NU 7026], the EC50 in the assay with MOLM-13, in the assay on MV4-11, in the assay with CHRF288-11, in the assay with CMK, with CMS and in the assay with M07e was more than 10 µM throughout. In addition, the EC50 in the assay with ML-2 and in the assay with U937 was more than 10 µM in each case.

For the compound `COC(=O)/C=C/C(=O)OC` [SJ000784308, BG-12], the EC50 in the assay with MOLM-13, in the assay on MV4-11, in the assay on CHRF288-11, in the assay with CMK, in the assay on CMS and with M07e was more than 10 µM each time. The EC50 in the assay with ML-2 and in the assay with U937 was more than 10 µM throughout.

`CCCCCCCCCCCCCCCc1cccc(O)c1C(=O)O` [SJ000785900, ANACARDIC ACID]: the EC50 in the assay with MOLM-13, in the assay on MV4-11, in the assay on CHRF288-11, in the assay with CMK, in the assay on CMS and with M07e was more than 10 µM in each case. Besides, the EC50 with ML-2 and with U937 was more than 10 µM throughout.

Consider `CCOC(=O)c1ccc(C#Cc2ccc3c(c2)C(C)(C)CCS3)nc1` [TAZAROTENE], for which the EC50 with MOLM-13, with MV4-11, in the assay with CHRF288-11, in the assay on CMK, with CMS and in the assay on M07e was more than 10 µM throughout. Also, the EC50 in the assay with ML-2 and with U937 was more than 10 µM in each case.

For `CSCC[C@H](NC(=O)c1ccc(NC(=O)[C@@H](N)CS)cc1)C(=O)O` [SJ000803714, H-CYS-4-ABZ-MET-OH], the EC50 in the assay on MOLM-13, in the assay on MV4-11, with CHRF288-11, in the assay with CMK, in the assay with CMS and with M07e was more than 10 µM in each case. Also, the EC50 in the assay with ML-2 is more than 10 µM; in the assay with U937, 2.7 µM.

As to `CN[C@@H]1C[C@H]2O[C@@](C)([C@@H]1OC)n1c3ccccc3c3c4c(c5c6ccccc6n2c5c31)C(=O)N[C@H]4O` [SJ000784325, 7-HYDROXYSTAUROSPORINE], the EC50 with MOLM-13 was 0.065 µM; in the assay on MV4-11, 0.19 µM; in the assay on CHRF288-11, 0.35 µM; in the assay with CMK, 0.23 µM; in the assay on CMS, 0.41 µM; in the assay on M07e, more than 10 µM. Further, the EC50 with ML-2 came to 0.25 µM; in the assay on U937 it was 0.26 µM.

On to `CC1=C(CC(=O)O)c2cc(F)ccc2/C1=C\c1ccc([S+](C)[O-])cc1` (stereo not drawn), for which the EC50 in the assay with MOLM-13, with MV4-11, in the assay with CHRF288-11, in the assay with CMK, in the assay on CMS and in the assay with M07e was more than 10 µM each time. Also, the EC50 in the assay on ML-2 and with U937 was more than 10 µM in each case.

As to `CC(C)c1nc(N(C)S(C)(=O)=O)nc(-c2ccc(F)cc2)c1/C=C/[C@@H](O)C[C@@H](O)CC(=O)O` [ROSUVASTATIN], the EC50 with MOLM-13, in the assay with MV4-11, with CHRF288-11, in the assay with CMK, with CMS and with M07e was more than 10 µM throughout. In addition, the EC50 in the assay on ML-2 and in the assay on U937 was more than 10 µM in each case.

Take `CNC(=O)c1ccccc1Nc1nc(Nc2ccc(N3CCOCC3)cc2OC)ncc1Cl` [SJ000822451, NVP-TAE226]: the EC50 in the assay on MOLM-13 is 0.7 µM; in the assay with MV4-11, more than 10 µM; in the assay on CHRF288-11, 9.8 µM; in the assay with CMK, 0.2 µM; with CMS, more than 10 µM; in the assay with M07e, 7.6 µM. Moreover, the EC50 was 2.5 µM in the assay with ML-2 and 4.5 µM in the assay with U937.

As to `Cn1cccc1/C=C1\C(=O)NC(=O)c2ccccc21` [SJ000784271, BYK 204165], the EC50 in the assay on MOLM-13 is 0.26 µM; with MV4-11, 0.72 µM; in the assay on CHRF288-11, 5.5 µM; with CMK, more than 10 µM; in the assay on CMS it was 2.2 µM; with M07e, 0.63 µM. Besides, the EC50 is more than 10 µM in the assay on ML-2 and 1.6 µM in the assay on U937.

Take `COc1ccc(-c2cc3c(C)nc(N)nc3n([C@H]3CC[C@H](OCCO)CC3)c2=O)cn1` [SJ000784313, PF-04691502]: the EC50 in the assay with MOLM-13 is 2.1 µM; with MV4-11 it was 0.001 µM; in the assay on CHRF288-11, 4.3 µM; with CMK it was 1.4 µM; with CMS, 0.34 µM; with M07e it was more than 10 µM. Moreover, the EC50 worked out at 0.23 µM in the assay with ML-2 and 0.6 µM in the assay with U937.
